According to patent US9969687B2, “Compounds useful as CCR9 modulators” (Norgine B.V., priority 2013, dated 2018):

What was measured:
CCR9 [1] = target: T1, CCR9 (Homo sapiens (Human), UniProt P51686); experiment: FLIPR calcium flux assay using MOLT4 cells, TECK stimulation; format: cell-based; details: MOLT4 cells (human T-cell line)
Summary of the method: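 MOLT4 cells in HBSS/20 mM HEPES with probenecid, Fluo-4 NW loaded, preincubated with compound (10 μM-0.1 nM final, half-log) for 60 min before TECK stimulation. Calcium rise read on FLIPR; IC50 from four-parameter fit, converted to Ki using TECK concentration and same-day TECK EC50.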

CCR9 [2] = target: T1, CCR9; experiment: FLIPR calcium flux assay using hCCR9 over expressed cells (Chem1-hCCR9), TECK stimulation; format: cell-based; details: Chem1-hCCR9 overexpressing cells
Procedure: Biological Activity: FLIPR Assay Using hCCR9 Over Expressed Cells
A calcium flux assay was used to determine the ability of the compounds to interfere with the binding between CCR9 and its chemokine ligand (TECK) in Chem1-hCCR9 overexpressing cells. hCCR9 overexpressing cells were seeded (25,000 cells/well) into black Poly-D-Lysine coated clear bottom 96-well plates (BD Biosciences, Cat #356640) and incubated overnight at 37° C./5% CO2 in a humidified incubator. Media was aspirated and cells washed twice with 100 μL assay buffer (1×HBSS, 20 mM HEPES) containing 2.5 mM Probenecid. A 0.3× Fluo-4 NW calcium dye was prepared in assay buffer containing 5 mM Probenecid and stored in the dark. Each well was loaded with 100 μL of 0.3× Fluo-4 NW calcium dye and incubated at 37° C./5% CO2 for 60 minutes and then at room temperature for 30 minutes. A half-log serially diluted concentration response curve was prepared at a 3× final assay concentration for each compound (10 μM-0.1 nM final assay concentration) and 50 μL of the compound then transferred to the cells (150 μL final volume) for 60 minutes prior to stimulation (30 minutes at 37° C./5% CO2 and 30 minutes at room temperature). TECK was diluted to 4× its EC80 in assay buffer (containing 0.1% [w/v] bovine serum albumin [BSA]) and 50 μL dispensed through the fluorometric imaging plate reader (FLIPR) instrument to stimulate the cells (200 μL final volume). The increase in intracellular calcium levels was measured with the FLIPR instrument. The potency of the compound as a CCR9 antagonist was calculated as an IC50 using GraphPad Prism software (variable slope four parameter). The Ki of the compound was determined from the IC50 values using the following equation. IC50/1+(Agonist (TECK) conc. used in assay/EC50 of agonist (TECK) generated on day of experiment) Ki calculation: […]

T1 sequence (P51686 whole entry): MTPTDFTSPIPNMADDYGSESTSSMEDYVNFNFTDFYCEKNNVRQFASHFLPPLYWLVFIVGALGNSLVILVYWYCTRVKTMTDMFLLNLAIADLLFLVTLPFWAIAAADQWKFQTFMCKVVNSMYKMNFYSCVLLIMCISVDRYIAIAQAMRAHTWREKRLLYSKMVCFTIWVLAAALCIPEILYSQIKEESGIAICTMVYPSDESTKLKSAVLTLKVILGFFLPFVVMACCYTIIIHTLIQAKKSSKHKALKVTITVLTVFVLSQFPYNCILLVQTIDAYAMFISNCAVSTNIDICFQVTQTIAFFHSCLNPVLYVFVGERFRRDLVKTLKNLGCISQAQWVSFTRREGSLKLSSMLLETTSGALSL

Cc1cncc(N2C(=O)c3c(Cl)ccc(NS(=O)(=O)c4ccc(C(C)(C)C)cc4)c3C2=O)n1 [Compound 220]
Ki (CCR9 [1]): 12 nM
Ki (CCR9 [2]): 42 nM

COc1cc(C#N)cc(N2C(=O)c3c(Cl)ccc(NS(=O)(=O)c4ccc(C(C)(C)C)cc4)c3C2=O)c1 [Compound 190]
Ki (CCR9 [1]): 24 nM
Ki (CCR9 [2]): 81 nM

COc1cccc(N2C(=O)c3c(Cl)ccc(NS(=O)(=O)c4ccc(C(C)(C)C)cc4)c3C2=O)c1 [Compound 138]
Ki (CCR9 [1]): 83 nM
Ki (CCR9 [2]): 138 nM

CC(C)(C)c1ccc(S(=O)(=O)Nc2ccc(Cl)c3c2C(=O)N(Cc2ncccc2F)C3=O)cc1 [Compound 239]
Ki (CCR9 [1]): 13 nM
Ki (CCR9 [2]): 23 nM

Cc1cncc(CN2C(=O)c3c(Cl)ccc(NS(=O)(=O)c4ccc(C(C)(C)C)cc4)c3C2=O)c1 [Compound 258]
Ki (CCR9 [1]): 23 nM
Ki (CCR9 [2]): 67 nM

COc1cccnc1N1C(=O)c2c(Cl)ccc(NS(=O)(=O)c3ccc(C(C)(C)C)cc3)c2C1=O [Compound 202]
Ki (CCR9 [1]): 22 nM
Ki (CCR9 [2]): 49 nM

COc1ccc(N2C(=O)c3c(Cl)ccc(NS(=O)(=O)c4ccc(C(C)(C)C)cc4)c3C2=O)nc1C [Compound 260]
Ki (CCR9 [1]): 16 nM
Ki (CCR9 [2]): 22 nM

Cc1cc(N2C(=O)c3c(Cl)ccc(NS(=O)(=O)c4ccc(C(C)(C)C)cc4)c3C2=O)c(C)[n+]([O-])c1 [Compound 267]
Ki (CCR9 [1]): 27 nM
Ki (CCR9 [2]): 59 nM

CC(C)(C)c1ccc(S(=O)(=O)Nc2ccc(Cl)c3c2C(=O)N(Cc2cncc(C#N)c2)C3=O)cc1 [Compound 195]
Ki (CCR9 [1]): 31 nM
Ki (CCR9 [2]): 42 nM

Cc1ccnc(N2C(=O)c3c(Cl)ccc(NS(=O)(=O)c4ccc(C(C)(C)C)cc4)c3C2=O)n1 [Compound 216]
Ki (CCR9 [1]): 23 nM
Ki (CCR9 [2]): 49 nM

Cc1cc(N2C(=O)c3c(Cl)ccc(NS(=O)(=O)c4ccc(C(C)(C)C)cc4)c3C2=O)c[n+]([O-])c1 [Compound 214]
Ki (CCR9 [1]): 20 nM
Ki (CCR9 [2]): 53 nM

CC(Cc1cccnc1)N1C(=O)c2c(Cl)ccc(NS(=O)(=O)c3ccc(C(C)(C)C)cc3)c2C1=O (centres unmarked) [Compound 196]
Ki (CCR9 [1]): 46 nM
Ki (CCR9 [2]): 103 nM

CC(C)(C)c1ccc(S(=O)(=O)Nc2ccc(Cl)c3c2C(=O)N(Cc2ccccn2)C3=O)cc1 [Compound 191]
Ki (CCR9 [1]): 20 nM
Ki (CCR9 [2]): 33 nM

CC(C)(C)c1ccc(S(=O)(=O)Nc2ccc(Cl)c3c2C(=O)N(c2ccc[nH]c2=O)C3=O)cc1 [Compound 281, 4-(tert-butyl)-N-(7-chloro-1,3-dioxo-2-(2-oxo-1,2-dihydropyridin-3-yl)isoindolin-4-yl)benzenesulfonamide]
Ki (CCR9 [1]): 5 nM
Ki (CCR9 [2]): 4 nM

COc1ccc(CN2C(=O)c3c(Cl)ccc(NS(=O)(=O)c4ccc(C(C)(C)C)cc4)c3C2=O)cn1 [Compound 235]
Ki (CCR9 [1]): 123 nM
Ki (CCR9 [2]): 94 nM

Cc1cc(CN2C(=O)c3c(Cl)ccc(NS(=O)(=O)c4ccc(C(C)(C)C)cc4)c3C2=O)c[n+]([O-])c1 [Compound 262]
Ki (CCR9 [1]): 46 nM
Ki (CCR9 [2]): 119 nM

CC(C)(C)c1ccc(S(=O)(=O)Nc2ccc(Cl)c3c2C(=O)N(c2cccnc2C(=O)O)C3=O)cc1 [Compound 287, 3-(4-((4-(tert-butyl)phenyl)sulfonamido)-7-chloro-1,3-dioxoisoindolin-2-yl)picolinic acid]
Ki (CCR9 [1]): 22 nM
Ki (CCR9 [2]): 10 nM

Cc1ccc(N2C(=O)c3c(Cl)ccc(NS(=O)(=O)c4ccc(C(C)(C)C)cc4)c3C2=O)nc1 [Compound 226]
Ki (CCR9 [1]): 21 nM
Ki (CCR9 [2]): 23 nM

CCOc1cncc(N2C(=O)c3c(Cl)ccc(NS(=O)(=O)c4ccc(C(C)(C)C)cc4)c3C2=O)c1 [Compound 103]
Ki (CCR9 [1]): 128 nM
Ki (CCR9 [2]): 242 nM

CC(C)(C)c1ccc(S(=O)(=O)Nc2ccc(Cl)c3c2C(=O)N(c2sccc2C#N)C3=O)cc1 [Compound 179]
Ki (CCR9 [1]): 16 nM
Ki (CCR9 [2]): 57 nM

Cc1cnc(C)c(N2C(=O)c3c(Cl)ccc(NS(=O)(=O)c4ccc(C(C)(C)C)cc4)c3C2=O)c1 [Compound 263]
Ki (CCR9 [1]): 11 nM
Ki (CCR9 [2]): 25 nM

CC(C)(C)c1ccc(S(=O)(=O)Nc2ccc(Cl)c3c2C(=O)N(c2cccc(C#N)c2)C3=O)cc1 [Compound 120, 4-(tert-butyl)-N-(7-chloro-2-(3-cyanophenyl)-1,3-dioxoisoindolin-4-yl)benzenesulfonamide]
Ki (CCR9 [1]): 74 nM
Ki (CCR9 [2]): 90 nM

COc1ccc(N2C(=O)c3c(Cl)ccc(NS(=O)(=O)c4ccc(C(C)(C)C)cc4)c3C2=O)c(C)n1 [Compound 238]
Ki (CCR9 [1]): 14 nM
Ki (CCR9 [2]): 13 nM

Cc1ccc(CN2C(=O)c3c(Cl)ccc(NS(=O)(=O)c4ccc(C(C)(C)C)cc4)c3C2=O)[n+]([O-])c1 [Compound 259]
Ki (CCR9 [1]): 13 nM
Ki (CCR9 [2]): 45 nM

CC(C)(C)c1ccc(S(=O)(=O)Nc2ccc(Cl)c3c2C(=O)N(c2cc(F)ccn2)C3=O)cc1 [Compound 276]
Ki (CCR9 [1]): 22 nM
Ki (CCR9 [2]): 91 nM

CC(C)(C)c1ccc(S(=O)(=O)Nc2cccc3c2C(=O)N(c2cccnc2)C3=O)cc1 [Compound 1, 4-tert-Butylphenylsulfonic acid (1,3-dioxo-2-(pyridin-3-yl)-2,3-dihydro-1H-isoindol-4-yl)-amide]
Ki (CCR9 [1]): 479 nM
Ki (CCR9 [2]): 1240 nM

CC(C)(C)c1ccc(S(=O)(=O)Nc2ccc(Cl)c3c2C(=O)N(c2ccncc2)C3=O)cc1 [Compound 264]
Ki (CCR9 [1]): 11 nM
Ki (CCR9 [2]): 18 nM

Cc1cnc(C#N)c(N2C(=O)c3c(Cl)ccc(NS(=O)(=O)c4ccc(C(C)(C)C)cc4)c3C2=O)c1 [Compound 256]
Ki (CCR9 [1]): 18 nM
Ki (CCR9 [2]): 18 nM

COc1ncc(C)cc1N1C(=O)c2c(Cl)ccc(NS(=O)(=O)c3ccc(C(C)(C)C)cc3)c2C1=O [Compound 261]
Ki (CCR9 [1]): 16 nM
Ki (CCR9 [2]): 11 nM

CC(C)(C)c1ccc(S(=O)(=O)Nc2ccc(Cl)c3c2C(=O)N(c2cnccn2)C3=O)cc1 [Compound 184]
Ki (CCR9 [1]): 16 nM
Ki (CCR9 [2]): 24 nM

CC(C)(C)c1ccc(S(=O)(=O)Nc2ccc(Cl)c3c2C(=O)N(c2cn[nH]c2)C3=O)cc1 [Compound 148, 4-(tert-butyl)-N-(7-chloro-1,3-dioxo-2-(1H-pyrazol-4-yl)isoindolin-4-yl)benzenesulfonamide]
Ki (CCR9 [1]): 36 nM
Ki (CCR9 [2]): 94 nM

N#Cc1cccc(CN2C(=O)c3c(Cl)ccc(NS(=O)(=O)c4ccc(F)c(C(F)(F)F)c4)c3C2=O)c1 [Compound 133]
Ki (CCR9 [1]): 220 nM
Ki (CCR9 [2]): 158 nM

Cc1ccc(N2C(=O)c3c(Cl)ccc(NS(=O)(=O)c4ccc(C(C)(C)C)cc4)c3C2=O)nn1 [Compound 236]
Ki (CCR9 [1]): 51 nM
Ki (CCR9 [2]): 32 nM

CC(C)(C)c1ccc(S(=O)(=O)Nc2ccc(Cl)c3c2C(=O)N(Cc2cccc(C#N)c2)C3=O)cc1 [Compound 126, 4-(tert-butyl)-N-(7-chloro-2-(3-cyanobenzyl)-1,3-dioxoisoindolin-4-yl)benzenesulfonamide]
Ki (CCR9 [1]): 158 nM
Ki (CCR9 [2]): 343 nM

COc1ccncc1N1C(=O)c2c(Cl)ccc(NS(=O)(=O)c3ccc(C(C)(C)C)cc3)c2C1=O [Compound 119]
Ki (CCR9 [1]): 2 nM
Ki (CCR9 [2]): 35 nM

CC(C)(C)c1ccc(S(=O)(=O)Nc2ccc(Cl)c3c2C(=O)N(c2ccsc2C(=O)O)C3=O)cc1 [Compound 288]
Ki (CCR9 [1]): 3 nM
Ki (CCR9 [2]): 23 nM

N#Cc1cccc(N2C(=O)c3c(Cl)ccc(NS(=O)(=O)c4ccc(C(F)(F)F)cc4)c3C2=O)c1 [Compound 121]
Ki (CCR9 [1]): 192 nM
Ki (CCR9 [2]): 337 nM

Cc1ccncc1CN1C(=O)c2c(Cl)ccc(NS(=O)(=O)c3ccc(C(C)(C)C)cc3)c2C1=O [Compound 208]
Ki (CCR9 [1]): 24 nM
Ki (CCR9 [2]): 16 nM

Cc1ccncc1N1C(=O)c2c(Cl)ccc(NS(=O)(=O)c3ccc(C(C)(C)C)cc3)c2C1=O [Compound 185]
Ki (CCR9 [1]): 7 nM
Ki (CCR9 [2]): 23 nM

Cc1cc[n+]([O-])cc1N1C(=O)c2c(Cl)ccc(NS(=O)(=O)c3ccc(C(C)(C)C)cc3)c2C1=O [Compound 188]
Ki (CCR9 [1]): 15 nM
Ki (CCR9 [2]): 89 nM

CC(C)(C)c1ccc(S(=O)(=O)Nc2ccc(Cl)c3c2C(=O)N(c2ccc(F)cn2)C3=O)cc1 [Compound 219]
Ki (CCR9 [1]): 10 nM
Ki (CCR9 [2]): 30 nM

O=C1c2c(Cl)ccc(NS(=O)(=O)c3ccc(C(F)(F)F)cc3)c2C(=O)N1Cc1cccnc1 [Compound 66]
Ki (CCR9 [1]): 115 nM
Ki (CCR9 [2]): 269 nM

Cc1cccc(CN2C(=O)c3c(Cl)ccc(NS(=O)(=O)c4ccc(C(C)(C)C)cc4)c3C2=O)n1 [Compound 254]
Ki (CCR9 [1]): 58 nM
Ki (CCR9 [2]): 68 nM

Cc1ccc(CN2C(=O)c3c(Cl)ccc(NS(=O)(=O)c4ccc(C(C)(C)C)cc4)c3C2=O)nc1 [Compound 251]
Ki (CCR9 [1]): 51 nM
Ki (CCR9 [2]): 148 nM

CC(C)(C)c1ccc(S(=O)(=O)Nc2ccc(Cl)c3c2C(=O)N(Cc2cccc[n+]2[O-])C3=O)cc1 [Compound 199]
Ki (CCR9 [1]): 6 nM
Ki (CCR9 [2]): 10 nM

Cc1ccc(NS(=O)(=O)c2ccc(C(C)(C)C)cc2)c2c1C(=O)N(Cc1cccnc1)C2=O [Compound 160]
Ki (CCR9 [1]): 456 nM
Ki (CCR9 [2]): 776 nM
